Columns and labels:
[1] = molecular target: T1, truncated His-MBP-Tev-KLHDC2 (residues 1-363) (Homo sapiens, UniProt Q9Y2U9); test: KLHDC2 FP competition binding assay; details: 15 nM KLHDC2 (residues 1-363), 10 nM fluorescein-labeled diglycine peptide probe, read-out: KLHDC2 binding Human FP: average external IC50
T1 construct: truncated His -MBP-Tev-KLHDC2 (residues 1-363) purified from E. coli; made in house; host or cells: E. coli
T1 sequence (Q9Y2U9 1-363): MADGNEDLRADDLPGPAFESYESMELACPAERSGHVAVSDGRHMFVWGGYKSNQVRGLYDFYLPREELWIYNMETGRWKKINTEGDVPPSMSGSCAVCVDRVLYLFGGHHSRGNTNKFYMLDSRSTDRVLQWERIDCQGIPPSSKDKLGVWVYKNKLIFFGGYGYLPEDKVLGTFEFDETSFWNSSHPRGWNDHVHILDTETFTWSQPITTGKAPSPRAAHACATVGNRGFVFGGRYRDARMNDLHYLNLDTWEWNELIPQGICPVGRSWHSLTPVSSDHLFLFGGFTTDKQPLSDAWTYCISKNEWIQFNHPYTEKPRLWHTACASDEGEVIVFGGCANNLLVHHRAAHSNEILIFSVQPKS
Procedure: FP competition binding assays were performed using 15 nM truncated His -MBP-Tev-KLHDC2 (residues 1-363) purified from E. coli, 10 nM fluorescein-labeled diglycine peptide probe, and test compounds in assay buffer consisting of 50 mM HEPES-Na pH 7.5, 100 mM NaCl, 2 mM DTT, 0.005% Tween-20 with a final volume of 20 uL. Compound stocks were dissolved at 10 mM in 100% DMSO and 11 point titration with 3 fold serial dilution was performed in black, flat bottom 384 well microplates. Plates were incubated at room temperature for 30 minutes. Plates were centrifuged at 1000 rpm for 1 min, data were collected using an Envision plate reader in fluorescence polarization mode with excitation filter FITC FP at 480 nm, emission filter FITC FP P-pol at 535 nm and FITC FP S-pol at 535 nm. FP signal was calculated using the equation (mP=1000*(S-G*P)/(S+G*P), G-factor=1.0) and % Inhibition was calculated using no-protein controls for 100% inhibition and DMSO only reactions for 0l % inhibition (yes).

[2] = molecular target: T1, truncated His-MBP-Tev-KLHDC2 (residues 1-363); test: KLHDC2 HTRF binding assay; details: 1 nM KLHDC2 (residues 1-363), fluorescein-labeled diglycine peptide probe

Structure (SMILES)	IC50 [1] [µM]	IC50 [2] [µM]
O=C(O)Cn1cc(NC(=O)COc2cc(Cl)cc(Cl)c2)ccc1=O [I-257]	> 5	> 5
Cc1cc(-c2ccc(=O)n(CC(=O)O)c2)ccc1F [I-376]	> 5	> 5
O=C(O)Cc1cc(NC(=O)[C@H]2CCCN(c3cncc4ccccc34)C2)ccc1Cl [I-7]	0.05 to 0.5	< 0.05
O=C(O)Cn1cc(-c2cccc(C(F)(F)F)c2)ccc1=O [I-381]	> 5	> 5
C[C@@]1(C(=O)Nc2ccc(=O)n(CC(=O)O)c2)CCCN(c2cccnc2)C1 [I-66]	> 5	0.5 to 5
CCc1cc(=O)n(CC(=O)O)cc1NC(=O)[C@H]1CCCN(c2cccnc2)C1 [I-50, 2-[4-ethyl-2-oxo-5-[(3S)-1-(3-pyridyl)piperidine-3-carbonyl|amino]-1-pyridyl]acetic acid]	0.5 to 5	0.05 to 0.5
O=C(O)Cn1cc(NC(=O)COc2ccccc2F)ccc1=O [I-279]	> 5	> 5
Cc1sc2c(c1C)C(c1ccc(Cl)cc1)=N[C@@H](CC(=O)NCCCCCCn1ccc3c(C(=O)Nc4ccc(=O)n(CC(=O)O)c4)cccc31)c1nnc(C)n1-2 [I-474]	< 0.05	< 0.05
CCc1ccc(C(=O)CCC(=O)Nc2ccc(=O)n(CC(=O)O)c2)cc1 [I-253]	> 5	> 5
O=C(O)Cn1cc(N2CCc3cc(-c4cccnc4)ccc3C2=O)ccc1=O [I-68]	> 5	0.5 to 5
O=C(O)Cn1cc(NC(=O)c2ccc(-c3ccccc3Cl)cc2)ccc1=O [I-197]	> 5	> 5
COc1cc(-c2ccc(CCCCCCCCCNC(=O)C[C@@H]3N=C(c4ccc(Cl)cc4)c4c(sc(C)c4C)-n4c(C)nnc43)cc2)ccc1C(=O)Nc1ccc(=O)n(CC(=O)O)c1 [I-470]	0.05 to 0.5	0.5 to 5
N#CCn1cc(NC(=O)c2cccc(-c3cccnc3)c2)ccc1=O [I-69]	> 5	> 5
CC(C)c1cc(=O)n(CC(=O)O)cc1NC(=O)c1cccc(-c2cccnc2)c1 [I-59]	0.5 to 5	0.05 to 0.5
O=C(O)Cn1cc(NC(=O)[C@H]2CCCN(c3cccnc3)C2)ccc1=O [I-91]	0.05 to 0.5	< 0.05
O=C(O)Cn1cc(CC(=O)Nc2ccccc2)ccc1=O [I-306]	> 5	> 5
COc1cc2ccccc2cc1C(=O)Nc1ccc(=O)n(CC(=O)O)c1 [I-320]	> 5	> 5
NCCCCCCCCCc1cccc2c(-c3cccc(C(=O)Nc4ccc(=O)n(CC(=O)O)c4)c3)cncc12 [I-109]	> 5	0.05 to 0.5
O=C(O)Cn1cc(-c2cccc(F)c2)ccc1=O [I-420]	> 5	> 5
O=C(O)Cn1cc(NC(=O)C(c2ccccc2)c2ccccc2)ccc1=O [I-328]	> 5	> 5
O=C(O)Cn1cc(-c2cccc(O)c2)ccc1=O [I-368]	> 5	> 5
COc1cncc(N2CCC[C@H](C(=O)Nc3ccc(=O)n(CC(=O)O)c3)C2)c1 [I-45]	0.05 to 0.5	< 0.05
O=C(O)Cn1cc(NC(=O)[C@@H]2CCCN(c3cccnc3)C2)c(C(F)(F)F)cc1=O [I-63]	> 5	0.5 to 5
O=C(O)CN1CC(NC(=O)c2ccccc2)CCC1=O (stereo not shown) [I-271]	> 5	> 5

Structure (SMILES)	IC50 [1] [µM]	IC50 [2] [µM]
Cc1ccc(-c2cccc(C(=O)Nc3ccc(=O)n(CC(=O)O)c3)c2)cc1 [I-275]	> 5	0.5 to 5
Nc1ccc(F)c2c(O)n[nH]c12 [I-427]	> 5	0.5 to 5
O=C(O)Cn1cc(NC(=O)[C@@H]2CCCN(c3cccnc3)C2)ccc1=O [I-92]	0.5 to 5	0.05 to 0.5
Cc1cc(=O)n(CC(=O)O)cc1NC(=O)c1ccccc1 [I-316]	> 5	> 5
O=C(O)C1CC(=O)N(Cc2cccnc2)C1 (stereo not shown) [I-220]	> 5	> 5
Nc1ccc2cc(C(=O)Nc3ccc(=O)n(CC(=O)O)c3)ccc2c1 [I-151]	> 5	0.5 to 5
O=C(O)Cn1cc(N2Cc3cccc(-c4cccnc4)c3C2=O)ccc1=O [I-80]	> 5	> 5
O=C(O)Cn1cc(-c2cccc3[nH]ccc23)ccc1=O [I-339]	> 5	> 5
O=C(O)CC1CN(C(=O)c2cccc(-c3cccnc3)c2)CCO1 (stereo not shown) [I-90]	> 5	> 5
O=C(O)C1CC(=O)N(Cc2ccc(Cl)cc2)C1 (stereo not shown) [I-221]	> 5	> 5
Cc1cc(=O)n(CC(=O)O)cc1NC(=O)[C@H]1CCCN(c2cccnc2)C1 [I-84]	0.5 to 5	0.05 to 0.5
O=C(O)Cn1cc(N2CCOCC2)ccc1=O [I-355]	> 5	> 5
O=C(O)Cc1cc(NC(=O)c2cccc(-c3cccnc3)c2)ccc1Cl [I-60]	> 5	0.5 to 5
O=C(O)Cn1cc(NC(=O)c2ccc(-c3ccccc3)cc2F)ccc1=O [I-161]	0.5 to 5	0.5 to 5
CNC(=O)c1ccc(-c2cccc(C(=O)Nc3ccc(=O)n(CC(=O)O)c3)c2)cc1 [I-193]	> 5	> 5
CCc1cncc(N2CCC[C@H](C(=O)Nc3ccc(=O)n(CC(=O)O)c3)C2)c1 [I-39]	0.05 to 0.5	< 0.05
COc1ncc(-c2ccc(=O)n(CC(=O)O)c2)cc1F [I-365]	> 5	> 5
CSCCC(NC(=O)c1ccccc1C)C(=O)Nc1ccc(=O)n(CC(=O)O)c1 (stereo not shown) [I-208]	> 5	> 5
COc1ncc(-c2ccc(=O)n(CC(=O)O)c2)cn1 [I-362]	> 5	> 5
CS(=O)(=O)c1ccccc1-c1ccc(=O)n(CC(=O)O)c1 [I-394]	> 5	> 5
Cc1cc(-c2ccc(=O)n(CC(=O)O)c2)c(C)cc1F [I-348]	> 5	> 5
O=C(Nc1ccc(=O)n([C@H](F)C(=O)O)c1)c1cccc(-c2cccnc2)c1 [I-52]	> 5	> 5
COc1ccc(-c2cccc(C)c2)cc1CC(=O)O [I-353]	> 5	> 5
Cc1cc(C(=O)Nc2ccc(=O)n(CC(=O)O)c2)sc1-c1ccccc1 [I-297]	> 5	0.5 to 5

Structure (SMILES)	IC50 [1] [µM]	IC50 [2] [µM]
NCCCCCCc1ccncc1-c1cccc(C(=O)Nc2ccc(=O)n(CC(=O)O)c2)c1 [I-163]	0.5 to 5	0.5 to 5
CN(C)C(=O)Cc1ccc(=O)n(CC(=O)O)c1 [I-284]	> 5	> 5
COc1cc(-c2cccs2)ccc1C(=O)Nc1ccc(=O)n(CC(=O)O)c1 [I-153]	0.5 to 5	0.5 to 5
COc1cc(-c2ccsc2)ccc1C(=O)Nc1ccc(=O)n(CC(=O)O)c1 [I-143]	0.5 to 5	0.5 to 5
O=C(O)Cn1cc(NC(=O)COc2ccccn2)ccc1=O [I-264]	> 5	> 5
COc1cccc(-c2cccc(C(=O)Nc3ccc(=O)n(CC(=O)O)c3)c2)c1 [I-292]	> 5	> 5
O=C(O)Cn1cc(-c2ccccc2O)ccc1=O [I-406]	> 5	> 5
O=C(O)Cn1cc(NC(=O)COc2ccc(Oc3ccccc3)cc2)ccc1=O [I-244]	> 5	> 5
O=C(O)Cn1cc(-c2cccc(CO)c2)ccc1=O [I-291]	> 5	> 5
Cc1cc(C(=O)Nc2ccc(=O)n(CC(=O)O)c2)sc1-c1cccnc1 [I-171]	> 5	> 5
O=C(O)Cn1cc(NC(=O)COc2cccc(Cl)c2)ccc1=O [I-265]	> 5	> 5
Cc1ccc(C(=O)Nc2ccc(=O)n(CC(=O)O)c2)cc1-c1cccnc1 [I-202]	0.5 to 5	0.05 to 0.5
CCOC(=O)Cn1cc(NC(=O)c2ccc(CCCCCCN)c(-c3cccnc3)c2)ccc1=O [I-147]	> 5	> 5
O=C(O)Cn1cc(NC(=O)N2CCC(c3ccccc3)CC2)ccc1=O [I-140]	> 5	> 5
COc1c(C(=O)Nc2ccc(=O)n(CC(=O)O)c2)cccc1-c1ccccc1 [I-259]	> 5	0.5 to 5
O=C(O)Cn1cc(NC(=O)c2ccc(-c3ccccc3)c(Cl)c2)ccc1=O [I-185]	> 5	0.5 to 5
O=C(O)Cn1cc(NC(=O)[C@H]2CCCN(c3cncc4ccccc34)C2)ccc1=O [I-41]	< 0.05	< 0.05
O=C(O)Cn1cc(-c2ccc(N3CCOCC3)cc2)ccc1=O [I-312]	> 5	> 5
O=C(O)Cn1cc(NC(=O)c2ccc3cc(Cl)ccc3c2)ccc1=O [I-177]	> 5	0.5 to 5
O=C(O)Cn1cc(-c2cccc(N3CCOCC3)c2)ccc1=O [I-322]	> 5	> 5
COc1cc(-c2nccs2)ccc1C(=O)Nc1ccc(=O)n(CC(=O)O)c1 [I-148]	0.5 to 5	0.5 to 5
O=C(O)C1CC(=O)N(Cc2ccccn2)C1 (stereo not shown) [I-230]	> 5	> 5
Cn1cc(-c2cccc(C(=O)Nc3ccc(=O)n(CC(=O)O)c3)c2)ccc1=O [I-178]	> 5	> 5

Source: patent US20250214969A1, “PROTEIN DEGRADERS AND USES THEREOF” (Kymera Therapeutics, Inc., priority 2022, published 2025)
